According to ChEMBL document CHEMBL1149334, “Structure of a new cyclic nonapeptide, segetalin F, and vasorelaxant activity of segetalins from Vaccaria segetalis” (Bioorg Med Chem Lett, 2006):
Activity calls are given as the source filed them. The rule behind the calls is not given here. Residues, ends and D or L forms follow the SMILES beside them.

Experiments:
Type in all cases: functional, organism-based
Settings in all cases: Aorta
Rattus norvegicus [1] = organism: Rattus norvegicus; assay: Vasorelaxation effect against norepinephrine-induced contraction of rat thoracic aortic ring with endothelium at 100 uM
Rattus norvegicus [2] = organism: Rattus norvegicus; assay: Vasorelaxation effect against norepinephrine-induced contraction of rat thoracic aortic ring without endothelium at 100 uM
Rattus norvegicus [3] = organism: Rattus norvegicus; assay: Vasocontractile effect on norepinephrine-induced contraction of rat thoracic aortic ring without endothelium at 100 uM
Rattus norvegicus [4] = organism: Rattus norvegicus; assay: Vasocontractile effect on norepinephrine-induced contraction of rat thoracic aortic ring with endothelium at 100 uM

CC(C)C[C@@H]1NC(=O)CNC(=O)[C@@H]2CCCN2C(=O)[C@H](Cc2ccccc2)NC(=O)[C@H](C)NC(=O)[C@H](Cc2ccccc2)NC(=O)[C@H](Cc2c[nH]cn2)NC1=O (cyclo(AFPGLHF))
Activity (Rattus norvegicus [1]): Active | Activity (Rattus norvegicus [2]): Active

CC(C)C[C@@H]1NC(=O)CNC(=O)[C@@H]2CCCN2C(=O)[C@H](Cc2ccccc2)NC(=O)[C@H](C)NC(=O)[C@H](Cc2ccccc2)NC(=O)[C@H](CO)NC1=O (cyclo(AFPGLSF))
Activity (Rattus norvegicus [1]): Active | Activity (Rattus norvegicus [2]): Active

CC(C)[C@@H]1NC(=O)CNC(=O)[C@H](C)NC(=O)[C@H](Cc2c[nH]c3ccccc23)NC(=O)[C@H](C)NC1=O (cyclo(AGVAW))
Activity (Rattus norvegicus [3]): Active | Activity (Rattus norvegicus [1]): Active | Activity (Rattus norvegicus [4]): Active

CC(C)[C@@H]1NC(=O)CNC(=O)[C@H](C)NC(=O)[C@H](Cc2ccc(O)cc2)NC(=O)[C@H](CCCCN)NC1=O (cyclo(AGVKY))
Activity (Rattus norvegicus [1]): Active | Activity (Rattus norvegicus [2]): Active

CC(C)[C@@H]1NC(=O)[C@@H]2CCCN2C(=O)[C@H](C(C)C)NC(=O)CNC(=O)[C@H](C)NC(=O)[C@H](Cc2c[nH]c3ccccc23)NC1=O (cyclo(AGVPVW))
Activity (Rattus norvegicus [1]): Active | Activity (Rattus norvegicus [2]): Active

C[C@@H]1NC(=O)[C@H](CO)NC(=O)[C@H](Cc2ccccc2)NC(=O)[C@@H]2CCCN2C(=O)[C@H](CCCCN)NC(=O)[C@H](CO)NC(=O)[C@H](CO)NC(=O)[C@H](Cc2ccc(O)cc2)NC(=O)[C@H](CO)NC1=O (cyclo(ASYSSKPFS))
Activity (Rattus norvegicus [1]): Active | Activity (Rattus norvegicus [2]): Active

N=C(N)NCCC[C@@H]1NC(=O)[C@H](Cc2ccc(O)cc2)NC(=O)CNC(=O)[C@H](CO)NC(=O)[C@H](Cc2ccccc2)NC1=O (cyclo(FSGYR))
Activity (Rattus norvegicus [1]): Active | Activity (Rattus norvegicus [2]): Active
